For experiment [1], the target named is T1, human RORgt nuclear receptor (RORgT ligand binding domain protein) (Homo sapiens, UniProt P51449).
T1 construct: purchased Proteros Biostructures GmbH
T1 sequence (P51449 with tags, fused parts or gaps): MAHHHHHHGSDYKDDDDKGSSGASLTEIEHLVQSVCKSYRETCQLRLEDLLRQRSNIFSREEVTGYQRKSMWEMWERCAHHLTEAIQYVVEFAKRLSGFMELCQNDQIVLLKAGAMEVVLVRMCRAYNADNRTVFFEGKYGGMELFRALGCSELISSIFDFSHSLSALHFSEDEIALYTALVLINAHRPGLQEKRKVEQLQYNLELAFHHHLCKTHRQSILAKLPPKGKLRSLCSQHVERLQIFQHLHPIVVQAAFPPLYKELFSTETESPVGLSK
Put plainly: ROR-gamma binding assay (Scintillation Proximity Assay, displacement of [3H]-25-hydroxycholesterol). As to conditions: EC50, SPA, 15 nM [3H]-25-Hydroxycholesterol, RORgT LBD 12 nM. The procedure, abridged:
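SPA competition of compound against 15 nM [3H]-25-hydroxycholesterol for His/FLAG-tagged human RORγt LBD (12 nM) on His-tag PVT beads, in 50 mM HEPES pH 7.4, 150 mM NaCl, 5 mM MgCl2, 0.1% BSA, 0.5% DMSO. 30 min preincubation, then ≥4 h at room temperature in darkness; EC50 by four-parameter fit.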

Experiment [2] concerns IL-17A in Human peripheral mononuclear cells. Kind of experiment: Human PBMC IL-17A assay. The following applies: 72 h, EC50, antiCD3/antiCD28-coated beads, 3 days, alpha-LISA. The experiment is classed as cell-based. In a few lines: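 Cryopreserved human PBMC (130,000/well) stimulated with anti-CD3/anti-CD28-coated beads (1 cell per bead) in RPMI-1640 with 10% bovine calf serum, compounds at 0.1% DMSO, for 3 days. Supernatant IL-17A measured by AlphaLISA, viability by PrestoBlue; EC50 from 4-parameter non-linear regression.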

Experiment [3] deals with IL-17A levels in human peripheral blood. Kind of experiment: tissue or blood. The following applies: 72 h, read-out: Human Whole blood IL-17A (nM). The experiment is classed as cell-based.

As for `Cc1cc(CN2CCN(C(=O)C3CCCC3)[C@@H](C)C2)c(C)c(Nc2nnc([C@H]3NCC[C@H]3O)o2)c1` [Example 78, cyclopentyl-[(2S)-4-[[3-[[5-[(2S,3R)-3-hydroxypyrrolidin-2-yl]-1,3,4-oxadiazol-2-yl]amino]-2,5-dimethyl-phenyl]methyl]-2-methyl-piperazin-1-yl]methanone], the EC50 in experiment [1] was 72.5 nM; in experiment [2], 95.9 nM; in experiment [3], 157 nM.
`Cc1cc(CN2CCN(C(=O)C3CCC(F)(F)C3)[C@@H](C)C2)c(C)c(Nc2nnc([C@H]3NCC[C@H]3O)o2)c1` (stereo partly drawn) [Example 79, (3,3-difluorocyclopentyl)-[(2S)-4-[[3-[[5-[(2S,3R)-3-hydroxypyrrolidin-2-yl]-1,3,4-oxadiazol-2-yl]amino]-2,5-dimethyl-phenyl]methyl]-2-methyl-piperazin-1-yl]methanone]: the EC50 in experiment [1] came to 274 nM; in experiment [2] it was 1220 nM; in experiment [3], 3530 nM.
`Cc1cc(CN2CCN(C(=O)OC(C)C)[C@@H](C)C2)c(C)c(Nc2nnc([C@@H]3CNC(=O)C3)o2)c1` [Example 83, isopropyl (2S)-4-[[2,5-dimethyl-3-[[5-[(3S)-5-oxopyrrolidin-3-yl]-1,3,4-oxadiazol-2-yl]amino]phenyl]methyl]-2-methyl-piperazine-1-carboxylate]: the EC50 in experiment [1] is 67 nM; in experiment [2], 123 nM; in experiment [3], 240 nM.

(Values after patent publication US10934282B2, “Heteroaromatic modulators of the retinoid-related orphan receptor gamma” (LEO PHARMA A/S, priority 2016, dated 2021).)
